Assay results: patent US9532569B2 (INSTITUT NATIONAL DE LA RECHERCHE AGRONOMIQUE, priority 2012, dated 2017)

Experiment: Stability in aqueous medium (UPLC, % nondegraded compound)
Assay type: physicochemical
Experimental: The stability in aqueous medium of the compound (IIa) according to the invention and that of GR24 as comparative compound was evaluated in the following way.
Each compound was diluted in acetone (1 ml), then 50 μl of each solution were diluted with methanol (175 μl) and water (750 μl) so as to obtain a compound concentration of 50 μg/ml.
The aqueous solution thus obtained was incubated at 21° C. in HPLC vials.
Indanol (25 μl of a solution at 1 mg/ml in acetone) was added to each solution in order to serve as an internal standard.
The degradation of each compound over time was monitored by analysis of samples taken from the solution at various time intervals, by Ultra Performance Liquid Chromatograpy (UPLC) by means of an Acquity UPLC HSS C18 column (1.8 μm, 2.1×50 mm), eluted first of all with a solution of acetonitrile at 5% in water containing 0.1% of formic acid, for 0.5 min, then with a gradient of 5% to 100% of acetonitrile in water containing 0.1% of formic acid, for 6.5 min, and with 100% of acetonitrile containing 0.1% of formic acid for 3 min. The column was maintained at a temperature of 40° C., with a flow of 0.6 ml/min.
The compounds eluted from the column were detected with a photodiode array detector.
The relative amount of nondegraded compound in the solution was determined by comparison with the internal standard.
In a second experiment, the stability in aqueous medium of the compounds (IIa) and (IIIb) according to the invention, and that of GR24 as comparative compound, was evaluated according to the protocol described above.

## CC1=C(C)C(Sc2ccc(Cl)cc2)OC1=O (centres unmarked) [Compound (IIa), 5-((4-chlorophenyl)thio)-3,4-dimethylfuran-2(5H)-one]
50 μg/ml of compound in methanol/water: 1/4, pH 6.7, 21° C., FIG. 1
  chemical stability in aqueous solution (% of nondegraded compound as a function of incubation time): very high chemical stability in aqueous solution, much higher than that of GR24
Second experiment, longer incubation times, 50 μg/ml in methanol/water: 1/4, pH 6.7, 21° C., FIG. 2
  chemical stability in aqueous solution (% of nondegraded compound as a function of incubation time): very high chemical stability in aqueous solution, much higher than that of GR24
